From patent publication US8952024B2, “Herbicidal pyrimidone derivatives” (E I du Pont de Nemours and Company, priority 2009, dated 2015)

How the values were obtained:
Type in all cases: in vivo
[1] = system: barnyardgrass (Echinochloa crus-galli); test: Test B flooded paddy test; conditions: for Plant response rating, Barnyardgrass: Flood (flooded paddy test), 13 to 15 days
Method in brief: (§1)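 Visual scores run from 0 (no effect) to 100 (complete control), assigned by comparison with controls 13 to 15 days after treatment. Test compounds went straight into water standing 3 cm above the soil, around plants at the 2-leaf stage kept in a greenhouse.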

[2] = system: umbrella sedge (Cyperus difformis); test: Test B flooded paddy test; conditions: for Plant response rating, Sedge, Umbrella: Flood (flooded paddy test), 13 to 15 days
Method in brief: as §1

[3] = system: rice (Oryza sativa); test: Test B flooded paddy test; conditions: for Plant response rating, Rice: Flood (flooded paddy test), 13 to 15 days
Method in brief: as §1

[4] = system: ducksalad (Heteranthera limosa); test: Test B flooded paddy test; conditions: for Plant response rating, Ducksalad: Flood (flooded paddy test), 13 to 15 days
Method in brief: as §1

[5] = system: wild oat (Avena fatua); test: Test B pre-/postemergence plant response
Source text: (§2) Seeds of plant species selected from blackgrass (Alopecurus myosuroides), downy bromegrass (Bromus tectorum), green foxtail (Setaria viridis), Italian ryegrass (Lolium multiflorum), wheat (Triticum aestivum), wild oat (Avena fatua), deadnettle (henbit deadnettle, Lamium amplexicaule), galium (catchweed bedstraw, Galium aparine), bermudagrass (Cynodon dactylon), Surinam grass (Brachiaria decumbens), cocklebur (Xanthium strumarium), corn (Zea mays), large crabgrass (Digitaria sanguinalis), woolly cupgrass (Eriochloa villosa), giant foxtail (Setaria faberii), goosegrass (Eleusine indica), johnsongrass (Sorghum halepense), kochia (Kochia scoparia), lambsquarters (Chenopodium album), morningglory (Ipomoea coccinea), nightshade (eastern black nightshade, Solanum ptycanthum), yellow nutsedge (Cyperus esculentus), pigweed (Amaranthus retroflexus), ragweed (common ragweed, Ambrosia elatior), Russian thistle (Salsola kali), soybean (Glycine max), sunflower (common oilseed sunflower, Helianthus annuus) and velvetleaf (Abutilon theophrasti) were planted into a blend of loam soil and sand and treated preemergence with test compounds formulated in a non-phytotoxic solvent mixture which included a surfactant.
(§3) At the same time, plants selected from these crop and weed species and also winter barley (Hordeum vulgare), canarygrass (Phalaris minor), chickweed (Stellaria media) and windgrass (Apera spica-venti) were planted in pots containing Redi-Earth® planting medium (Scotts Company, 14111 Scottslawn Road, Marysville, Ohio 43041) comprising spaghnum peat moss, vermiculite, wetting agent and starter nutrients and treated with postemergence applications of some of the test chemicals formulated in the same manner. Plants ranged in height from 2 to 18 cm (1- to 4-leaf stage) for postemergence treatments.
(§4) Treated plants and controls were maintained in a greenhouse for 13 to 15 days, after which time all treated plants were visually evaluated and compared to controls. Plant response ratings, summarized in Table B, are based on a scale of 0 to 100 where 0 is no effect and 100 is complete control. A dash (-) response means no test result.

[6] = system: bermudagrass (Cynodon dactylon); test: Test B pre-/postemergence plant response
Source text: as §2, §3, §4

[7] = system: corn (Zea mays); test: Test B pre-/postemergence plant response
Source text: as §2, §3, §4

[8] = system: johnsongrass (Sorghum halepense); test: Test B pre-/postemergence plant response
Source text: as §2, §3, §4

[9] = system: cocklebur (Xanthium strumarium); test: Test B pre-/postemergence plant response
Source text: as §2, §3, §4

[10] = system: pigweed (Amaranthus retroflexus); test: Test B pre-/postemergence plant response
Source text: as §2, §3, §4

[11] = system: lambsquarters (Chenopodium album); test: Test B pre-/postemergence plant response
Source text: as §2, §3, §4

[12] = system: ragweed (common ragweed, Ambrosia elatior); test: Test B pre-/postemergence plant response
Source text: as §2, §3, §4

[13] = system: soybean (Glycine max); test: Test B pre-/postemergence plant response
Source text: as §2, §3, §4

[14] = system: green foxtail (Setaria viridis); test: Test B pre-/postemergence plant response
Source text: as §2, §3, §4

[15] = system: giant foxtail (Setaria faberii); test: Test B pre-/postemergence plant response
Source text: as §2, §3, §4

[16] = system: kochia (Kochia scoparia); test: Test B pre-/postemergence plant response
Source text: as §2, §3, §4

[17] = 250 g ai/ha, flooded paddy test, visual rating on 0 to 100 scale (0 no effect, 100 complete control) after 13 to 15 days
[18] = 31 g ai/ha, scale of 0 to 100 where 0 is no effect and 100 is complete control
[19] = 62 g ai/ha, scale of 0 to 100 where 0 is no effect and 100 is complete control
[20] = 125 g ai/ha, scale 0 to 100, 0 is no effect, 100 is complete control
[21] = 31 g ai/ha, postemergence, scale 0 to 100, 0 is no effect, 100 is complete control
[22] = 250 g ai/ha, Preemergence, 0 to 100 scale
[23] = Postemergence, 62 g ai/ha, scale 0 (no effect) to 100 (complete control), 13 to 15 days
[24] = Postemergence, 125 g ai/ha, visual rating after 13 to 15 days, scale 0 (no effect) to 100 (complete control)
[25] = Postemergence, 250 g ai/ha, scale 0 to 100 (0 no effect, 100 complete control)
[26] = Preemergence, 31 g ai/ha, scale 0 to 100 (0 no effect, 100 complete control)
[27] = Preemergence, 62 g ai/ha, scale 0 to 100, 0 no effect, 100 complete control
[28] = Preemergence, 125 g ai/ha, scale 0 to 100, 0 no effect, 100 complete control

## Cc1ccc(Cl)cc1-n1c(-c2ccccc2)ncc(C(=O)C2=C(O)CCCC2=O)c1=O [Compound 52]
[1]; [17]
  Plant response rating, Flood, Barnyardgrass: 55
[1]; [18]
  Plant response rating, Barnyardgrass: 0
[1]; [19]
  Plant response rating, Barnyardgrass: 0
[1]; [20]
  Plant response rating, Barnyardgrass: 40
[2]; [17]
  Plant response rating, Flood, Sedge, Umbrella: 40
[2]; [18]
  Plant response rating, Sedge, Umbrella: 20
[2]; [19]
  Plant response rating, Sedge, Umbrella: 30
[2]; [20]
  Plant response rating, Sedge, Umbrella: 30
[3]; [17]
  Plant response rating, Flood, Rice: 60
[3]; [18]
  Plant response rating, Rice: 0
[3]; [19]
  Plant response rating, Rice: 0
[3]; [20]
  Plant response rating, Rice: 50
[4]; [17]
  Plant response rating, Flood, Ducksalad: 70
[4]; [18]
  Plant response rating, Ducksalad: 0
[4]; [19]
  Plant response rating, Ducksalad: 0
[4]; [20]
  Plant response rating, Ducksalad: 40
[5]; [21]
  Plant response rating, Oat, Wild: 90
[5]; [22]
  Plant response rating, Oat, Wild: 60
[5]; [23]
  Plant response rating, Oat, Wild: 90
[5]; [24]
  Plant response rating, Oat, Wild: 95
[5]; [25]
  Plant response rating, Oat, Wild: 95
[5]; [26]
  Plant response rating, Oat, Wild: 0
[5]; [27]
  Plant response rating, Oat, Wild: 5
[5]; [28]
  Plant response rating, Oat, Wild: 5
[6]; [21]
  Plant response rating, Bermudagrass: 85
[6]; [22]
  Plant response rating, Bermudagrass: 100
[6]; [23]
  Plant response rating, Bermudagrass: 95
[6]; [24]
  Plant response rating, Bermudagrass: 95
[6]; [25]
  Plant response rating, Bermudagrass: 100
[6]; [26]
  Plant response rating, Bermudagrass: 98
[6]; [27]
  Plant response rating, Bermudagrass: 98
[6]; [28]
  Plant response rating, Bermudagrass: 98
[7]; [21]
  Plant response rating, Corn: 30
[7]; [22]
  Plant response rating, Corn: 0
[7]; [23]
  Plant response rating, Corn: 45
[7]; [24]
  Plant response rating, Corn: 65
[7]; [25]
  Plant response rating, Corn: 80
[7]; [26]
  Plant response rating, Corn: 0
[7]; [27]
  Plant response rating, Corn: 0
[7]; [28]
  Plant response rating, Corn: 0
[8]; [21]
  Plant response rating, Johnsongrass: 75
[8]; [22]
  Plant response rating, Johnsongrass: 95
[8]; [23]
  Plant response rating, Johnsongrass: 85
[8]; [24]
  Plant response rating, Johnsongrass: 90
[8]; [25]
  Plant response rating, Johnsongrass: 95
[8]; [26]
  Plant response rating, Johnsongrass: 10
[8]; [27]
  Plant response rating, Johnsongrass: 75
[8]; [28]
  Plant response rating, Johnsongrass: 90
[9]; [21]
  Plant response rating, Cocklebur: 75
[9]; [22]
  Plant response rating, Cocklebur: 75
[9]; [23]
  Plant response rating, Cocklebur: 85
[9]; [24]
  Plant response rating, Cocklebur: 85
[9]; [25]
  Plant response rating, Cocklebur: 85
[9]; [26]
  Plant response rating, Cocklebur: 0
[9]; [27]
  Plant response rating, Cocklebur: 0
[9]; [28]
  Plant response rating, Cocklebur: 10
[10]; [21]
  Plant response rating, Pigweed: 85
[10]; [22]
  Plant response rating, Pigweed: 100
[10]; [23]
  Plant response rating, Pigweed: 90
[10]; [24]
  Plant response rating, Pigweed: 95
[10]; [25]
  Plant response rating, Pigweed: 98
[10]; [26]
  Plant response rating, Pigweed: 90
[10]; [27]
  Plant response rating, Pigweed: 100
[10]; [28]
  Plant response rating, Pigweed: 100
[11]; [21]
  Plant response rating, Lambsquarters: 85
[11]; [22]
  Plant response rating, Lambsquarters: 100
[11]; [23]
  Plant response rating, Lambsquarters: 85
[11]; [24]
  Plant response rating, Lambsquarters: 90
[11]; [25]
  Plant response rating, Lambsquarters: 95
[11]; [26]
  Plant response rating, Lambsquarters: 98
[11]; [27]
  Plant response rating, Lambsquarters: 100
[11]; [28]
  Plant response rating, Lambsquarters: 100
[12]; [21]
  Plant response rating, Ragweed: 75
[12]; [22]
  Plant response rating, Ragweed: 95
[12]; [23]
  Plant response rating, Ragweed: 80
[12]; [24]
  Plant response rating, Ragweed: 80
[12]; [25]
  Plant response rating, Ragweed: 85
[12]; [26]
  Plant response rating, Ragweed: 80
[12]; [27]
  Plant response rating, Ragweed: 80
[12]; [28]
  Plant response rating, Ragweed: 85
[13]; [21]
  Plant response rating, Soybean: 80
[13]; [22]
  Plant response rating, Soybean: 80
[13]; [23]
  Plant response rating, Soybean: 95
[13]; [24]
  Plant response rating, Soybean: 95
[13]; [25]
  Plant response rating, Soybean: 98
[13]; [26]
  Plant response rating, Soybean: 0
[13]; [27]
  Plant response rating, Soybean: 0
[13]; [28]
  Plant response rating, Soybean: 55
[14]; [21]
  Plant response rating, Foxtail, Green: 95
[14]; [22]
  Plant response rating, Foxtail, Green: 100
[14]; [23]
  Plant response rating, Foxtail, Green: 98
[14]; [24]
  Plant response rating, Foxtail, Green: 98
[14]; [25]
  Plant response rating, Foxtail, Green: 100
[14]; [26]
  Plant response rating, Foxtail, Green: 0
[14]; [27]
  Plant response rating, Foxtail, Green: 30
[14]; [28]
  Plant response rating, Foxtail, Green: 45
[15]; [21]
  Plant response rating, Foxtail, Giant: 80
[15]; [22]
  Plant response rating, Foxtail, Giant: 75
[15]; [23]
  Plant response rating, Foxtail, Giant: 80
[15]; [24]
  Plant response rating, Foxtail, Giant: 90
[15]; [25]
  Plant response rating, Foxtail, Giant: 90
[15]; [26]
  Plant response rating, Foxtail, Giant: 0
[15]; [27]
  Plant response rating, Foxtail, Giant: 15
[15]; [28]
  Plant response rating, Foxtail, Giant: 25
[16]; [21]
  Plant response rating, Kochia: 20
[16]; [23]
  Plant response rating, Kochia: 25
[16]; [24]
  Plant response rating, Kochia: 55
[16]; [25]
  Plant response rating, Kochia: 65
